{"source": "paper PMC5084681", "about": "“Ephenidine: A new psychoactive agent with ketamine-like NMDA receptor antagonist properties” (Neuropharmacology, 2017)", "key": {"[1]": {"system": "NMDA receptor-mediated fEPSP", "test": "Extracellular recording of NMDA receptor-mediated fEPSP in CA1 of hippocampal slices", "assay_type": "cell-based, rat", "conditions": "for time-course of reduction of NMDA receptor mediated fEPSP: 1 and 10 μM; for inhibition of NMDA receptor mediated fEPSP: after 4 h superfusion", "protocol": "(§1) Male Wistar and Sprague-Dawley rats (Crl:Wi; Charles River, UK) aged 3–10 weeks old were killed by dislocation of cervical vertebrae according to Schedule 1 of the United Kingdom (Scientific Procedures) Act of 1986. Brains were rapidly removed and put in artificial cerebrospinal fluid (aCSF) consisting of 124 mM NaCl, 26 mM NaHCO3, 3 mM KCl, 1.4 mM NaH2PO4, 1 mM MgSO4, 2 mM CaCl2, and 10 mM D-glucose and continuously oxygenated with 95% O2 and 5% CO2. Parasagittal brain slices, 400 μm thick, of the hippocampus were removed, stored and placed in a submerged recording chamber at 28–30 °C.\n(§2) Recordings of extracellular synaptic activity were made ([Ceolin et al., 2012], [Volianskis et al., 2013]) using a bipolar electrode to deliver stimuli (0.03 Hz) to the Schaffer collateral pathway to evoke field excitatory postsynaptic potentials (fEPSPs) recorded from a glass microelectrode (3–6 MΩ) in the stratum radiatum of area CA1. […] In initial experiments after 30 min of stable control responses, the remaining response was challenged with 30 μM ephenidine. Using this protocol for isolating NMDA-fEPSPs (see Fig. 2A), 1 and 10 μM ephenidine or 1 and 10 μM D-2-amino-5-phosphonopentanoic acid (D-AP5) were added to the perfusate for up to 4 h while recording the amplitude and area of the NMDA-fEPSP on-line using WinLTP ([Anderson and Collingridge, 2007]). Single exponential curves were fitted to show likely half-times and minimum plateau responses achieved with each concentration used. For selectivity experiments, 50 μM picrotoxin and 1 μM CGP 55845 were added to the solution from the beginning of the experiment and 50 μM ephenidine was superfused for 60 min in the absence of other pharmacological agent."}, "[2]": {"system": "NMDA receptor-mediated EPSCs", "test": "Whole-cell patch clamp of NMDA receptor-mediated EPSCs in CA1 pyramidal cells", "assay_type": "cell-based, rat", "protocol": "as §1\nWhole-cell patch clamp recordings of excitatory postsynaptic currents (EPSCs) were made from CA1 pyramidal cells under visual guidance with IR-DIC optics as described by [Park et al. (2016)]. The recording chamber was maintained at 32 °C. Borosilicate glass pipettes were used with a resistance of 3–5 MΩ. The internal solution comprised (mM): 8 NaCl, 130 CsMeSO3, 10 HEPES, 0.5 EGTA, 4 Mg-ATP, 0.3 Na3-GTP, 5 QX-314 and 0.1 spermine. The pH was adjusted to 7.2–7.3 with CsOH and osmolarity to 285–290 mOsm. Peak amplitude of EPSCs was measured while varying holding voltage from −60 mV to +60 mV and stimulating the Schaffer collateral pathway at a frequency of 0.1 Hz at constant intensity. Five consecutive responses obtained at each holding potential were averaged to plot the current-voltage relationship. Currents through NMDA receptors were pharmacologically isolated using 10 μM NBQX, 50 μM picrotoxin and 20 μM (+)-bicuculline. In initial experiments, MgSO4 was omitted from the bath solution for at least 30 min before patching and replaced with 30 μM ephenidine, 10 μM ketamine, 30 μM D-AP5 or 2 mM MgSO4. Rectification indices were calculated from the EPSC values at +40 mV and −40 mV. In subsequent experiments, slices were incubated in aCSF with no added MgSO4, before transferring to the recording chamber to obtain control current-voltage plots from NMDA-EPSCs as above before adding 2 mM MgSO4 or 30 μM ephenidine for 30 min and repeating the current-voltage protocol. Representative sample traces are shown from typical experiments, and stimulus artifacts blanked for clarity. Data were normalized to the baseline preceding drug application, and are presented as mean ± SEM and compared using one-way ANOVA and level of significance is denoted as *** for p values < 0.001."}, "[3]": {"system": "AMPA receptor-mediated fEPSP", "test": "Extracellular recording of AMPA receptor-mediated fEPSP in CA1 of hippocampal slices", "assay_type": "cell-based, rat", "protocol": "as §1\nas §2, with “Single exponential curves were fitted to show likely half-times and minimum plateau responses achieved with each concentration used. For selectivity experiments, 50 μM picrotoxin and 1 μM CGP 55845 were added to the solution from the beginning of the experiment and 50 μM ephenidine was superfused for 60 min in the absence of other pharmacological agent.” left out"}, "[4]": {"biological_target": "MK-801 binding site of the NMDA receptor", "test": "(+)-[3H]-MK-801 displacement binding in whole rat brain homogenate", "protocol": "Termination of reaction was performed via vacuum filtration using a 24 well cell harvester (Brandel, Gaithersburg, MD) over presoaked GF/B glass fiber filters (Brandel, Gaithersburg, MD). Filters were washed with room temperature assay buffer (3 × 5 mL). Trapped tritium was measured via liquid scintillation counting, using a Beckman LS 6500 multipurpose scintillation counter (BeckmanCoulter, USA) at 57% efficiency. IC50 values were determined in Graphpad Prism 5.0 using non-linear regression with log-concentration plotted against percent specific binding. […] Ki values were calculated using the equation of [Cheng and Prusoff (1973)]. […] Protein concentration was determined via the Bradford method using Coomassie protein assay reagent (Sigma, USA) with rat albumin (Sigma, USA) as standard. Experiments were performed in duplicate and repeated three or four times."}, "[5]": {"biological_target": "dopamine transporter (DAT) (Homo sapiens, UniProt Q01959)", "sequence (Q01959 whole entry, species assumed)": "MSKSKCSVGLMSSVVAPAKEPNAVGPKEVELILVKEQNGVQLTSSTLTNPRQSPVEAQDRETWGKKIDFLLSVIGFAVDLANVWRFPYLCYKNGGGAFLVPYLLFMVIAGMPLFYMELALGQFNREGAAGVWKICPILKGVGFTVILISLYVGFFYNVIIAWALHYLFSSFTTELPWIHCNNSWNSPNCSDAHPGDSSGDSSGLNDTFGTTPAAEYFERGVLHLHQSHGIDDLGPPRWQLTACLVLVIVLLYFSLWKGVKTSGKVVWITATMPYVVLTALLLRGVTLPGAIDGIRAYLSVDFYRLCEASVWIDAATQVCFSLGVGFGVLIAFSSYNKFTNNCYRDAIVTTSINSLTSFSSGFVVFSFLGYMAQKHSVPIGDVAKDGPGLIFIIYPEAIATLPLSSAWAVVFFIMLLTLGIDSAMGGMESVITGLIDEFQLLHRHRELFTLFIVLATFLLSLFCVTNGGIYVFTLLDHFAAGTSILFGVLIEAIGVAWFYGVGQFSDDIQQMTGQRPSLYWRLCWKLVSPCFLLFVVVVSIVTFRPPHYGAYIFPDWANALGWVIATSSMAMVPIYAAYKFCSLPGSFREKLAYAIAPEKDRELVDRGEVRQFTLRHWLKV", "test": "NIMH PDSP receptor binding assay, dopamine transporter", "protocol": "(§3) Displacement by ephenidine in binding assays of a further 45 CNS receptors was performed through the National Institute of Mental Health Psychoactive Drug Screening Program (NIMH PDSP). Briefly ephenidine, dissolved in DMSO, was subject to a primary screen at a concentration of 10 μM (see Suppl. 2 for radioligands used). […] Additional experimental details are available in the NIMH PDSP protocol book ([Roth et al., 2013])."}, "[6]": {"biological_target": "noradrenaline transporter (NET) (Homo sapiens, UniProt P23975)", "sequence (P23975 whole entry)": "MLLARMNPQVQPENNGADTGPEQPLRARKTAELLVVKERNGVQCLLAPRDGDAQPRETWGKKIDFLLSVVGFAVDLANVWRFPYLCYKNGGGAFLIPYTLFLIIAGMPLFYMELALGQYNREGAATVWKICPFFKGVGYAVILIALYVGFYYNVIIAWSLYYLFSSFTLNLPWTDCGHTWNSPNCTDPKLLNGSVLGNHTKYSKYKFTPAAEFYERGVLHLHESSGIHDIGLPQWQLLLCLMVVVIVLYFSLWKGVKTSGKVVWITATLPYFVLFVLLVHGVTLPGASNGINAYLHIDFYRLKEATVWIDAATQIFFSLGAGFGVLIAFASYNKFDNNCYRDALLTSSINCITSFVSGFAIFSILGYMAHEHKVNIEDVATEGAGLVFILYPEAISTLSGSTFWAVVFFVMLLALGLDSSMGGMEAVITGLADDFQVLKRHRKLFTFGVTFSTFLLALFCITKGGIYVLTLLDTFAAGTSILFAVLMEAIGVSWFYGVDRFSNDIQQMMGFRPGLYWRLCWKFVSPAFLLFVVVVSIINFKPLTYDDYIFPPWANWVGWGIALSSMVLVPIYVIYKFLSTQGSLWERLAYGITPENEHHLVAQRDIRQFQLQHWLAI", "test": "NIMH PDSP receptor binding assay, noradrenaline transporter", "protocol": "as §3"}, "sigma 1 binding site": {"biological_target": "sigma 1 binding site (Homo sapiens, UniProt Q99720)", "sequence (Q99720 whole entry)": "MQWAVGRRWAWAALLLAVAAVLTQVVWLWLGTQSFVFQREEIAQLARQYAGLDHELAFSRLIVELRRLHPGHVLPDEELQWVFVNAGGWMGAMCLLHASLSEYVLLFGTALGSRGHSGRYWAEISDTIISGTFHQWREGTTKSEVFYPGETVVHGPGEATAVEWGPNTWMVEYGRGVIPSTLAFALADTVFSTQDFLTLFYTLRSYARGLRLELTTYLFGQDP", "test": "NIMH PDSP receptor binding assay, sigma 1", "conditions": "affinity for sigma 1 binding site, NIMH PDSP secondary assay", "protocol": "as §3"}, "sigma 2 binding site": {"biological_target": "sigma 2 binding site (Homo sapiens, UniProt Q5BJF2)", "sequence (Q5BJF2 whole entry)": "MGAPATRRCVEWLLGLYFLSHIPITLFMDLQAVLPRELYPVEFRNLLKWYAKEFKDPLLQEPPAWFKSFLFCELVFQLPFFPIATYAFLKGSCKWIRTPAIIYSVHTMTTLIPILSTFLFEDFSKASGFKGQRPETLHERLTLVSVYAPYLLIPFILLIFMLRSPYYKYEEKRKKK", "test": "NIMH PDSP receptor binding assay, sigma 2", "protocol": "as §3"}, "[7]": {"system": "remaining 41 CNS receptors (Supplement 2)", "test": "NIMH PDSP primary binding screen at 10 μM, remaining 41 receptors", "protocol": "as §3"}, "[8]": {"system": "long-term potentiation (LTP) in CA1", "test": "LTP of fEPSPs in Schaffer collateral-CA1 pathway induced by theta burst stimulation", "assay_type": "cell-based, rat", "protocol": "as §1\nTo study the effect of ephenidine on long-term potentiation (LTP), slices were incubated in control aCSF or aCSF containing 10 μM ephenidine for at least 2 h before transferring to the recording chamber, fEPSPs were recorded as above without addition of other agents. After obtaining stable responses, a theta burst stimulation (TBS; [Park et al., 2016]) was applied to the Schaffer collateral pathway and the amplitude of the fEPSP in CA1 monitored for at least a further 40 min."}, "PCP binding site": {"system": "PCP binding site", "set-up": "method as in Thurkauf et al., 1989", "conditions": "ref Thurkauf et al., 1989; cited from earlier work"}, "[9]": {"biological_target": "MK-801 binding site of the NMDA receptor", "set-up": "method as in Wallach et al., 2016", "conditions": "same assay, ref Wallach et al., 2016, cited from earlier work; for Ki: read-out: Ki, (+)-[3H]-MK-801 displacement"}}, "note": "Values joined by “and” are separate entries in the source; they are usually repeats but may differ in a detail not shown here. Equal values may be shown once. “Also recorded” adds a separate entry of the source. Read-outs that look alike come from different tables or passages of the source."}
{"molecule": "N[C@H](CCCP(=O)(O)O)C(=O)O", "note": "[D-AP5, D-2-amino-5-phosphonopentanoic acid, reference compound]", "values": [{"measurement": "time-course of reduction of NMDA receptor mediated fEPSP", "setting": "[1]", "value": "rapid reduction"}, {"measurement": "rectification index (RI; +40 mV/−40 mV)", "setting": "[2]; 30 μM D-AP5, no added Mg2+", "value": "0.8 ± 0.01"}, {"measurement": "effect on NMDA-EPSC current-voltage relationship", "setting": "[2]; 30 μM, no added Mg2+", "value": "reduced both inward and outward current"}]}
{"molecule": "NS(=O)(=O)c1cccc2c1c([N+](=O)[O-])cc1nc(O)c(O)nc12", "note": "[NBQX, reference compound]", "values": [{"measurement": "effect on AMPA receptor mediated fEPSP", "setting": "[3]; 3 μM", "value": "rapid block of the remaining fEPSP"}]}
{"molecule": "CCNC(Cc1ccccc1)c1ccccc1", "note": "(stereo not shown) [ephenidine, N-Ethyl-1,2-diphenylethanamine]", "values": [{"measurement": "IC50", "setting": "[4]; 1 nM (+)-[3H]-MK-801", "value": "104 ± 5.9", "unit": "nM"}, {"measurement": "Ki", "setting": "[4]; 1 nM (+)-[3H]-MK-801, Cheng-Prusoff", "value": "66 nM and 66.4 nM"}, {"measurement": "Ki", "setting": "[5]", "value": 379, "unit": "nM"}, {"measurement": "Ki", "setting": "[6]", "value": 841, "unit": "nM"}, {"measurement": "Ki", "setting": "sigma 1 binding site", "value": "629 nM and 628 nM"}, {"measurement": "Ki", "setting": "sigma 2 binding site", "value": 721, "unit": "nM"}, {"measurement": "displacement in primary screen", "setting": "[7]", "value": "less than 50%"}, {"measurement": "inhibition of NMDA receptor mediated fEPSP", "setting": "[1]; 1 μM", "value": 25, "unit": "%"}, {"measurement": "inhibition of NMDA receptor mediated fEPSP", "setting": "[1]; 10 μM", "value": "near maximal inhibition; also recorded: near maximal effect"}, {"measurement": "effect on NMDA receptor mediated fEPSP", "setting": "[1]; 30 μM", "value": "slowly reduced"}, {"measurement": "effect on AMPA receptor mediated fEPSP (peak amplitude)", "setting": "[3]; 50 μM, 1 h superfusion", "value": "lack of effect; also recorded: did not affect; also recorded: no significant reduction"}, {"measurement": "block of NMDA receptor-mediated EPSCs", "setting": "[2]; 10 μM", "value": "blocked NMDA receptor-mediated EPSCs in a highly voltage-dependent manner"}, {"measurement": "rectification index (RI; +40 mV/−40 mV)", "setting": "[2]; 30 μM ephenidine, no added Mg2+", "value": "3.6 ± 0.3"}, {"measurement": "effect on NMDA-EPSC current-voltage relationship", "setting": "[2]; 30 μM, no added Mg2+", "value": "reduction of inward current at negative holding potentials"}, {"measurement": "mean NMDA-EPSC current at +40 mV", "setting": "[2]; 30 μM, no added Mg2+, holding potential +40 mV", "value": "133 ± 12", "unit": "pA"}, {"measurement": "mean NMDA-EPSC current at −40 mV", "setting": "[2]; 30 μM, no added Mg2+, holding potential −40 mV", "value": "−48 ± 8", "unit": "pA"}, {"measurement": "effect on induction of LTP", "setting": "[8]; 10 μM", "value": "blocked the induction of long term potentiation (LTP); also recorded: completely blocked the induction of LTP"}, {"measurement": "effect on induction of LTP", "setting": "[8]; 30 μM", "value": "completely blocked the induction of LTP"}, {"measurement": "affinity for the PCP binding site", "setting": "PCP binding site", "value": 257, "unit": "nM"}]}
{"molecule": "CNC1(c2ccccc2Cl)CCCCC1=O", "note": "(stereo not shown) [ketamine]", "values": [{"measurement": "time-course of reduction of NMDA receptor mediated fEPSP", "setting": "[1]", "value": "slower reduction"}, {"measurement": "rectification index (RI; +40 mV/−40 mV)", "setting": "[2]; 10 μM, no added Mg2+", "value": "2.0 ± 0.2"}, {"measurement": "Ki", "setting": "[9]; listed as Ketamine", "value": "324 ± 19.2", "unit": "nM"}, {"measurement": "IC50", "setting": "[9]; read-out: IC50, (+)-[3H]-MK-801 displacement", "value": "508 ± 30.1", "unit": "nM"}, {"measurement": "Ki", "setting": "[9]", "value": "324 ± 19", "unit": "nM"}]}
